Results taken from publication PMC6993238, “Development of a new class of PSMA radioligands comprising ibuprofen as an albumin-binding entity” (Theranostics, 2020).

What was measured:
[1] = Radiolytic stability at high activity concentration (HPLC); assay type: physicochemical; details: 24 h, saline with L-ascorbic acid (3 mg), 250 MBq/500 μL, room temperature
Method: The radiolytic stability of the PSMA radioligands (50 MBq/nmol) was determined at a high activity concentration (250 MBq/500 μL saline) over a period of 24 h in the absence or presence of L-ascorbic acid (3 mg). The samples were kept at room temperature and aliquots were taken 1 h, 4 h and 24 h after labeling in order to determine the amount of intact radioligand using HPLC as previously reported (Supplementary Material), [29].
Methods: Radioly tic stability of each PSMA radioligand was assessed over a period of 24 h. For this purpose, Ibu-PSMA, Ibu-Dα-PSMA, Ibu-N-PSMA and Ibu-DAB-PSMA were labeled with 177Lu in a volume of 120 µL at a molar activity of 50 MBq/nmol. After quality control using HPLC (t = 0, radiochemical purity ≥ 96%), the labeling solutions were diluted with saline to 250 MBq/500 µL and radioligand integrity was determined for each radioligand with and without addition of L-ascorbic acid (3 mg). The radioligand dilutions were incubated at room temperature and radioligand degradation was determined by HPLC after 1 h, 4 h and 24 h incubation time as previously reported. The HPLC chromatograms were analyzed by integration of the peaks representing the radiolabeled product, the released 177Lu as well as degradation products of unknown structure (Figure S3). […]

mouse plasma proteins = assay: Ultrafiltration assay, binding to mouse plasma proteins; assay type: in vitro ADME; details: 37 °C, 30 min
Method: (§1) In short, the PSMA ligands were labeled with ^177Lu at a molar activity of 50 MBq/nmol, diluted in PBS (pH 7.4) to an activity concentration of 10 MBq/500 μL and incubated in mouse or human plasma at 37 °C for 30 min. After incubation, each sample was loaded on a centifree ultrafiltration device (4104 centrifugal filter units; Millipore, 30000 Da nominal molecular weight limit, methylcellulose micropartition membranes) and centrifuged at 2000 rpm for 40 min at 20 °C to allow the separation of the unbound and plasma-bound radioligand fractions. Samples from the loading solution and samples from the filtrate were taken and counted for radioactivity in a γ-counter. The amount of plasma-bound radioligand was calculated as the fraction of radioactivity measured […] relative to the corresponding loading solution (set to 100%). Control experiments were performed with each radioligand by incubation in PBS (pH 7.4) prior to filtration in order to determine the unspecific binding of the radioligands to the filter membrane. The experiments were performed at least three times for each radioligand. A one-way ANOVA with a Tukeys's multiple comparison post-test was used for statistical analysis in GraphPad Prism software (version 7). A p-value of <0.05 was considered statistically significant.

human plasma proteins = assay: Ultrafiltration assay, binding to human plasma proteins; assay type: in vitro ADME; details: 37 °C, 30 min
Method: as §1

PSMA = biological target: T1, PSMA (Homo sapiens, UniProt Q04609); assay: Determination of KD values (saturation binding on PC-3 PIP tumor cells); details: 30 min at 4 °C, 2-PMPA block for non-specific binding
T1 construct: expressed in transfected cells; host or cells: PC-3 PIP (PSMA-transfected subline of human PC-3 prostate cancer cells), provided by Prof; Martin Pomper
Method: The KD values, indicating the PSMA-binding affinity of the radioligands, were determined using PC-3 PIP tumor cells. The cells were seeded in 48-well-plates (8 x 10^4 cells in 500 µL RPMI medium/well) allowing adhesion and growth overnight. During the experiment, well plates were kept on ice. After removal of the supernatant, the cells were washed once with ice-cold PBS (pH 7.4) before addition of different concentrations (1‒2000 nM) of the radiolabeled PSMA ligands (5 MBq/nmol) in ice-cold RPMI medium without supplements. Some of the PC-3 PIP tumor cell samples were co-incubated with 2-phosphonomethyl pentanedioic acid (2-PMPA, 200 μM) to block PSMA enabling the determination of non-specific binding. After incubation of the well-plates for 30 min at 4 °C, the supernatants were removed and the cells washed twice with ice-cold PBS. The cells were lysed (NaOH, 1 M, 600 µL) and transferred to 4 mL tubes for counting the activity in a γ-counter (Wallac Wizard 1480, Perkin Elmer). The KD values were determined by plotting specific binding (total binding minus unspecific binding determined with blocking agent) against the molar concentration of the added radioligands. […] Statistical significance was assessed using a one-way ANOVA with a Tukeys's multiple comparison post-test in GraphPad Prism software (version 7). […]

[2] = tested on: non-tumor-bearing athymic BALB/c nude mice; assay: In vivo excretion, whole-body activity measurement; set-up: species or system mouse; details: 4 h p.i.; activity right after injection = 100%
Method: 14. Determination of the in vivo excretion of the radioligands
Methods: In order to determine the retention and excretion of each radioligand, non-tumor-bearing athymic BALB/c nude mice were injected with each radioligand (n = 2−3; per radioligand). The mice were measured for radioactivity immediately after injection and at several time points after injection up to 56 h p.i. (Figure S8). The PSMA ligands were, therefore, labeled at a molar activity of 25 MBq/nmol and diluted in saline containing 0.05% bovine serum albumin (BSA). Mice were intravenously injected with the respective radioligand (25 MBq, 1 nmol, 100 µL) and – after e mptying the urinary bladder – measured in a dose calibrator immediately (t = 0) and at various time points after injection up to 56 h p.i..
The activity measured right after injection was set as 100%. The data points present the average of three mice per radioligand ± standard deviation (SD). […]
to the albumin-binding properties of the incorporated ibuprofen. The ibuprofen-bearing radioligands […]
p-tolyl moiety as stronger albumin binder. […]
excretion patterns for the single radioligands, which was manifested most prominently between 1 h and 4 h p.i. At all measured time points, retention was highest for the radioligand without additional linker entity, 177Lu-Ibu-PSMA. […]
Figure S8. […] The activity measured right after injection was set as 100%. […]

[3] = n-octanol/PBS; cited from earlier work
[4] = tested on: PC-3 PIP/flu tumor-bearing mice; set-up: method as in Benešová et al. 2018 [1]; AUC value PC-3 PIP tumor / AUC value Blood / AUC value Kidneys / AUC value Liver / AUC value Salivary glands: concentration or dose not given beside the values; details: previously published, ref Benešová et al. 2018 [1], cited from earlier work

T1 sequence (Q04609 whole entry): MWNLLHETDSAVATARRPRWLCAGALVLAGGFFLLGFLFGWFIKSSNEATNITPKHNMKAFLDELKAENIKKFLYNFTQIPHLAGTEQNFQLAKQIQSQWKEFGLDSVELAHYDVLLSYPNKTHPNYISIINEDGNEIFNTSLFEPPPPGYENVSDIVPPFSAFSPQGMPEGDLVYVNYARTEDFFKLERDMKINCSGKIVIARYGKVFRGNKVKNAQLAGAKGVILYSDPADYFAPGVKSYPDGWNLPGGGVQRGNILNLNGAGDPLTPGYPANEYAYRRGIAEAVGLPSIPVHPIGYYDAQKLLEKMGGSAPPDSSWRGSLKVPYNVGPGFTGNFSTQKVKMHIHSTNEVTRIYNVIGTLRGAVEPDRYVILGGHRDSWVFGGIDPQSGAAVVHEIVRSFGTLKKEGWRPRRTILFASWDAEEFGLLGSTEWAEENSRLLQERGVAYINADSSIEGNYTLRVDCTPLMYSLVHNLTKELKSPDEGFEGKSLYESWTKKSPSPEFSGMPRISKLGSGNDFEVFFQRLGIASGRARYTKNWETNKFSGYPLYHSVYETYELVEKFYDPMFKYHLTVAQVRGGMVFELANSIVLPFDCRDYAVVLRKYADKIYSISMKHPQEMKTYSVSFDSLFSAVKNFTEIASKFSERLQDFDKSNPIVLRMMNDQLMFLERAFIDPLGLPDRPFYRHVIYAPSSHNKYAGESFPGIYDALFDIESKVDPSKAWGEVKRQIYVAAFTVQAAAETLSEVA

O=C([O-])CN1CCN(CC(=O)[O-])CCN(CC(=O)NCC2CCC(C(=O)N[C@@H](Cc3ccc4ccccc4c3)C(=O)NCCCC[C@H](NC(=O)N[C@@H](CCC(=O)O)C(=O)O)C(=O)O)CC2)CCN(CC(=O)[O-])CC1.[177Lu+3] (stereo partly drawn) [^177Lu-PSMA-617]
intact radioligand [1]: over 91% | binding to mouse plasma proteins (bound fraction) (mouse plasma proteins): 6.0 ± 2% | binding to human plasma proteins (bound fraction) (human plasma proteins): 59 ± 1% | Kd (PSMA): 13 ± 1 nM | body retention of activity [2]: 3.2% | logD value [3]: -4.4 ± 0.2 | AUC value Blood ([4]; non-decay-corrected data): 52 ± 2 % IA/g*h | AUC value Kidneys ([4]; non-decay-corrected data): 99 ± 11 % IA/g*h | AUC value Liver ([4]; non-decay-corrected data): 6.2 ± 1.6 % IA/g*h | AUC value PC-3 PIP tumor ([4]; non-decay-corrected data): 3691 ± 156 % IA/g*h | AUC value Salivary glands ([4]; non-decay-corrected data): 0.5 ± 0.2 % IA/g*h | Ratio of AUC values AUCTu-to-AUCBl ([4]; tumor-to-blood): 71 ± 6 | Ratio of AUC values AUCTu-to-AUCKi ([4]; tumor-to-kidney): 37 ± 6 | Ratio of AUC values AUCTu-to-AUCLi ([4]; tumor-to-liver): 592 ± 179 | Ratio of AUC values AUCTu-to-AUCSG ([4]; tumor-to-salivary gland): 7382 ± 3265
